Results on 92 compounds are retold here after a melting point compilation (Tetko et al.; mined from patent text by program, amines drawn as free bases though some values may be those of a salt).

SMILES strings stand for the structures.

`CCOC(=O)Cc1csc(NC(=O)NC)n1`: the melting point was 158 to 159 °C.
In turn, `CCCCOC(=O)CNC(=O)c1nc2ccc(Cl)cc2cc1OCc1ccccc1` displayed a melting point of 121 to 123 °C.
With `Cn1cnc2nc(-c3ccc(C#N)cc3)nn2c1=S` the figure was more than 300 °C; with `O=C(NCC1Cc2cccc(-c3c(Cl)cccc3Cl)c2O1)OCc1ccccc1` (configuration not stated), 198 to 200 °C; with `CCOC(=O)c1cc(=O)nc2n1-c1ccccc1OC2`, 174 to 175 °C.
With `COc1ccc(Cl)c(Oc2c(C)nc(N3CCOCC3)nc2O)c1` the figure was 252 °C.
With `CC(=O)CCCCCC(=O)N[C@@H](C)C(=O)N[C@H](CCC(=O)OCc1ccccc1)C(N)=O` the figure was 162 °C.
For the compound `CCCCc1cc2cn(C3CCCC3)c(=O)nc2o1`, the melting point lay within 130 to 131 °C.
As for `CCCCCCCCCc1ccc(C(=O)CCCCC(=O)O)cc1`, the figure is 29 to 31 °C; as for `CC(C)S(=O)(=O)N1CCC2(CC1)OCCO2`, 66 to 67 °C.
As for `O[C@H](CN[C@H]1CCCc2ccccc21)COc1cccc2ccccc12`, the figure is 107 to 109 °C; as for `Cn1cccc1C1=C(c2cn(C)c3ccccc23)C(=O)NC1=O`, 248 to 250 °C.
As for `C=CCOC(=O)C(C#N)=C(SC)SC`, the figure is 36 to 37.5 °C; as for `CNC(=NS(=O)(=O)c1ccc(C)cc1)NCCSCc1[nH]cnc1C`, 138 °C; as for `O=C(O)C1(NS(=O)(=O)c2ccc3oc4cc(Br)ccc4c3c2)CCCC1`, 177 to 178 °C.
For `C#Cc1cn(C2CC(O)C(CO)O2)c(=O)nc1N` (configuration not stated), the melting point is 162 to 165 °C.
The compound `CONc1nc(C#Cc2ccccc2)nc2c1ncn2[C@@H]1O[C@H](CO)[C@@H](O)[C@H]1O` yielded a melting point of 175 to 177 °C.
With `COc1cc(C(C)=O)c(O)cc1OCCCCl` the figure was 99 to 101 °C; with `CC(C)(C(N)=O)/C(F)=C(/F)c1ccc(Cl)cc1`, 99 °C.
`CN1CCN(C2Cc3ccccc3Sc3cc(F)c(F)cc32)CC1` (configuration not stated): the melting point lay in the range of 106 to 108 °C.
As for `CC1(C)C(=O)Nc2cc3[nH]c(NC(=O)c4ccncc4)nc3cc21`, the figure is more than 300 °C.
With `Cc1cc(OC(=O)N[C@@H](CCC(=O)O)C(=O)O)ccc1N(CCCl)CCCl` the figure was 160 to 162 °C.
As for `COCn1ccnc1C(O)(c1ccc(Cl)cc1)c1ccc(Cl)cc1`, the figure is 145 to 146 °C; as for `CN(c1ccc(C(C(F)(F)Cl)C(F)(F)Cl)cc1)S(C)(=O)=O`, 140 to 142 °C; as for `CCNc1nc(C=O)cs1`, 84 to 85 °C.
Regarding `COC(=O)CCc1cc2nc(Cl)ccc2n1S(=O)(=O)c1cccc(OC(F)(F)F)c1`, the melting point is 102 °C.
As for `CCc1ccc2c(c1NC(=O)CC1c3ccccc3Oc3ccccc31)OC(C)C2` (configuration not stated), the figure is 278 to 279 °C; as for `CC(C)(C)SC1CC(=O)N1CC(=O)CCc1ccccc1` (configuration not stated), 65 °C; as for `O=C1NCCCCC1c1cccc(O)c1` (configuration not stated), 175 to 178 °C.
With `COCCNc1cc(NCCOC)c([N+](=O)[O-])cc1Cl` the figure was 106 °C.
Compound `CC(=O)c1ccc(C2=CCC(C)CC2)cc1` (configuration not stated) displayed a melting point of 50 to 52 °C.
As for `COc1ccc(C(=O)Nc2c(F)cccc2F)cc1OC1CCCC1`, the figure is 158 to 160 °C; as for `CCCc1nc2c(N)nc3cc(OCCCCCCNC(=O)OC(C)(C)C)ccc3c2s1`, 136 to 139 °C; as for `CCCOc1cc(OC)cc(O)c1C(=O)C=Cc1ccc(OC)cc1`, 117 °C.
In the case of `Cc1ccc(-c2ccc(OC3SCC(O)C(O)C3O)c(F)n2)cn1` (configuration not stated), the melting point lay within 189 to 190 °C.
With `COCCOCCOCCOc1cc(OC)c(-c2cccs2)cc1/C=C/C(=O)c1ccc(C(=O)O)cc1` the figure was 137 to 138 °C; with `COC(=O)c1ccc2c(c1C(=O)OC)C(=O)OC2=O`, 178 to 180 °C.
With `COc1ccc(NN=C(Sc2ccccc2)C(C)=O)cc1` the figure was 120 to 123 °C.
As for `O=C(O)[C@@H]1C[C@@H](O)CN1C(=O)OCc1ccccc1`, the figure is 106 to 107 °C.
As to `O=c1[nH]c(=O)n(C2CC(F)C(CO)O2)cc1C(Br)=CI` (configuration not stated), the melting point was determined as 107 °C.
As for `C=CCN(CC=C)C(=O)C1=C(C(=O)Nc2cc(OC3CCCC3)c(Cl)cc2F)CCCC1`, the figure is 74 to 76 °C.
As for `CCOC(=O)CCn1cc(CN(C)C)n(C2CCc3ccccc3C2)c1=S` (configuration not stated), the figure is 128 to 130 °C; as for `CC(C)n1nnnc1-c1ccc(N)c([N+](=O)[O-])c1`, 126 to 128 °C.
As for `O=C(CN1C(=O)c2ccccc2C1=O)c1ccc(F)cc1`, the figure is 140 to 144 °C; as for `CC1(C)OC(=O)Nc2ccc(-c3cccc(F)c3F)cc21`, 166 to 167 °C.
Consider `Cc1ncc([N+](=O)[O-])n1CCN1C(=O)c2ccccc2C1=O`, for which the melting point amounted to 177 °C.
With `COC(=O)C(C)c1ccc(-c2ccccc2)c(O)c1` (configuration not stated) the figure was 106 to 108 °C.
With `NCc1ccc(C(=O)Nc2ccc(-n3nc(C(F)(F)F)cc3C(F)(F)F)cc2)c(Cl)c1` the figure was 90 to 93 °C; with `CC1CC(=O)C=C2CCC3C4CCC(=O)C4(C)CCC3C21C` (configuration not stated), 154 °C.
`COc1cc(CO)c([N+](=O)[O-])cc1OCCCC(=O)O` showed a melting point of 172 to 175 °C.
As for `O=C(C=Cc1ccccc1)NNC(=O)c1ccc(O)cc1`, the figure is 263 to 264 °C; as for `CC(C)(C)c1cc(Cc2nc3cc(Cl)cc(Br)c3o2)cc(C(C)(C)C)c1O`, 133 to 136 °C; as for `CC(C)(C)OC(=O)N1CCC(C(=O)NC2=NCCCN2)CC1`, 155 to 160 °C.
The compound `CC1(O)CC(=O)OC(CCc2ccc(OCc3ccc(F)cc3)cc2)C1Br` (configuration not stated) returned a melting point of 160 to 163 °C.
As for `COc1cc2c(cc1OC)CN(CCNc1ccc(NC(=O)c3cccc4c(=O)c5cccc(OC)c5[nH]c34)cc1)CC2`, the figure is 228 to 234 °C; as for `COc1ccc(C2=NN(Cc3ccccc3Cl)C(=O)[C@H]3CCCC[C@@H]23)cc1OC` (relative stereo), 101 to 104 °C.
With `O=C(O)CN1C(=O)C(=Cc2c[nH]c3ccccc23)SC1=S`, the melting point was more than 300 °C.
As for `O=C1OC2CC3CC(C2)OC1O3`, the figure is 140 to 143 °C; as for `COC(=O)c1ccc(O)c(C=NO)c1`, 155 °C.
As for `COc1ccccc1-n1c(-c2ccc(N(C)C)cc2)nnc1C(C)O` (configuration not stated), the figure is 145 °C; as for `COc1c(F)c(N)cc(F)c1F`, 45 to 47 °C.
In turn, `Cc1ccccc1Oc1nnc(Cl)c(C)c1O` had a melting point of 209 to 213 °C.
As for `CS(=O)(=O)NC(=O)c1ccc(OCCn2ccnc2)cc1`, the figure is 198 to 199 °C; as for `CC(=O)c1ccc2c(c1)C(c1ncccc1C)CC(C)(C)O2` (configuration not stated), 87 to 88 °C.
As for `O=C1OC(=O)c2c(Cl)cc(Cl)cc21`, the figure is 90 to 94 °C.
With `COC(=O)CCC1=C(N)CCC1=O` the figure was 223 to 224 °C; with `CCCCCCNC(=O)[C@H](C)C[C@H](O)[C@H](CC1CCCCC1)NC(=O)[C@H](Cc1cscn1)NC(=O)OC(C)(C)C`, 156 to 158 °C; with `COc1ccc2cc([C@H](C)C(=O)OCC(=O)N(C)CC(=O)OCCCO)ccc2c1`, 41 to 43 °C.
On to `Nc1cccc2ccc(C(=O)O)cc12`, for which the melting point lay in the range of 221 to 223 °C.
With `CC(c1ccc(-c2ccccc2)c(F)c1)c1cc(N)on1` (configuration not stated) the figure was 122 to 123 °C; with `CCOC(=O)c1sc(-c2cccn2C)nc1-c1ccccc1`, 86 to 89 °C; with `CC1C(=O)Oc2cc(N3CCCCCC3)ccc21` (configuration not stated), 57 to 59 °C.
Compound `COc1ccc(COc2cncc3c2C(=O)c2c(F)ccc(Cl)c2C3=O)cc1` yielded a melting point of 155 to 157 °C.
With `COc1cc(OC)cc(N2CCN(C(=O)Nc3cc4ccccc4cc3OC)CC2)c1` the figure was 191 to 193 °C; with `CC(C)(CCC#N)c1ccc(C(=O)Nc2cn3cc(Cl)ccc3n2)cc1`, 198 to 199 °C; with `NC(=NO)C1CCc2ccccc2CC1`, 219 °C.
In turn, `CCOC(=O)c1cn(C2CC2)c2cc(-c3cc(C4OCC(C)(C)CO4)cc(OC)c3OC)c(F)cc2c1=O` showed a melting point of 178 to 180 °C.
In turn, `Cc1cc2c(cc1O)C(C)(C)CC1(CC(C)(C)c3cc(OCCCO)c(C)cc3O1)O2` (configuration not stated) yielded a melting point of 175 to 177 °C.
As for `COc1ccc(Nc2ccccc2C(C)=C(Cl)Cl)cc1OC`, the figure is 94 to 96 °C; as for `Cc1ccc(S(=O)(=O)Nc2cccc3cc(C(=O)O)[nH]c23)cc1`, 268 to 269 °C; as for `COc1ccc(C2=C(c3ccc(O)cc3)CCCc3cc(O)ccc32)cc1`, 250 to 252 °C.
As for `O=c1[nH]c2ccccc2c(=O)n1CCCCNCCCn1c(=O)[nH]c2ccccc2c1=O`, the figure is 140 °C; as for `O=C(O)CCNC(=O)c1cccc(NC(=O)c2csc(NC(=O)NCc3ccccc3)n2)c1`, 157 °C; as for `Ic1cccc(-c2nnc(-c3ccc4ccccc4c3)o2)c1`, 156 to 158 °C.
`CN1CCN(c2ccc(C#N)nn2)CC1`: the melting point came out at 149 °C.
As for `CCCCS(=O)(=O)c1c(-c2ccccc2)nn(C)c1-c1ccccc1`, the figure is 92.5 to 93 °C.
As for `C=CCNc1nc(NCc2ccccc2)c2scc(C)c2n1`, the figure is 97 to 98 °C; as for `CN1CC[C@H](CP(=O)(O)O)C[C@@H]1C(=O)O` (relative stereo), 256 to 260 °C; as for `CCn1c(C(C#N)c2cc(C)cc(C#N)c2)c(C(C)C)c(=O)[nH]c1=O` (configuration not stated), 260 to 261 °C.
As for `CCOc1nn(C(=O)NS(=O)(=O)c2ccccc2N2CCCC2)c(=O)n1C`, the figure is 68 °C.
Consider `O=C(CCN1CCCC1)Nc1ccc2c(c1)C(=O)c1cc(NC(=O)CCN3CCCC3)ccc1C2=O`, for which the melting point turned out to be 233 °C.
As for `O=C1NC(=O)c2ccc(N3CCCCC3)cc2/C1=C/Nc1ccc(CN2CCCCC2)cc1`, the figure is 211 to 212 °C.

As a reminder, the melting point is the temperature, or range, at which the solid turns liquid.
